In series [1] the test system is HUH7 cells. The series can be described thus: Neutral red cell viability assay, HUH7. In kind it is cell-based, human. The settings on record: Homo sapiens, Huh-7; 24 h treatment, neutral red; read-out: LD50 HUH7 (HCC). The method, then: (§1) The human hepatocellular carcinoma (HCC) cell line HUH7 was purchased from ATCC (LGC standards GmbH, Wesel, Germany). The Austrian human HCC cell line AKH12 has been well characterized and was kindly provided by Prof. Bettina Grasl-Kraupp. HUH7 cells were cultured in Dulbecco’s modified Eagle’s medium (Thermo Fisher Scientific, Waltham, MA, USA) containing 10% heat-inactivated fetal bovine serum (FBS) (Sigma-Aldrich, St. Louis, MO, USA), 1% penicillin-streptomycin (10,000 U/mL) (Thermo Fisher Scientific, Waltham, MA, USA), and 1% minimum essential medium nonessential amino acids (100x) (Thermo Fisher Scientific, Waltham, MA, USA). AKH12 cells were cultured in RPMI1640 medium (Sigma-Aldrich, St. Louis, MO, USA) containing 10% heat-inactivated FBS. DAOY and D283Med (short D283) medulloblastoma (MB) cells were purchased from ATCC (LGC standards GmbH, Wesel, Germany). D425Med (short D425) and UW228-2 were provided by Thomas Ströbel from the Institute of Neurology Medical University of Vienna. The cells were cultured in Dulbecco’s modified Eagle’s medium (Sigma-Aldrich, St. Louis, MO, USA) containing 10% FBS (Sigma-Aldrich, St. Louis, MO, USA), 2% L-Glutamine (Sigma-Aldrich, St. Louis, MO, USA), and 0.2% Normocin (Sigma-Aldrich, St. Louis, MO, USA). U-251 MG (short U251) glioblastoma (GBM) cell line was purchased from Sigma-Aldrich and cultured in Dulbecco’s modified Eagle’s medium (Sigma-Aldrich, St. Louis, MO, USA) containing 10% FBS (Sigma-Aldrich, St. Louis, MO, USA), 2% L-Glutamine (Sigma-Aldrich, St. Louis, MO, USA), and 0.2% Normocin (Sigma-Aldrich, St. Louis, Missouri, USA). Human umbilical vein endothelial cells (HUVECs) were provided by Brigitte Winter from the Department of Surgery Medical University of Vienna and were grown in endothelial cell growth medium-2 BulletKitTM (Lonza, Basel, Switzerland) under standard tissue culture conditions. All cells were incubated at 37 °C in a 5% CO2 atmosphere and regularly checked for mycoplasma contamination.
(§2) Cell viability was determined using a neutral red assay, as previously described. The cells were placed in 24-well plates and grown to reach 70–80% confluency prior to treatment. After treatment for 24 h, cells were incubated with neutral red at a concentration of 50 µg/mL in serum-free medium for 2 h at 37 °C. Cells were then washed 2x and incubated with 1% acetic acid in 70% ethanol. The dye concentration was measured photometrically at 562 nm. The percentage of survival was calculated considering DMSO-treated (indicated as 0 µM concentration) cells as 100% control.
(§3) LD50 was defined as the amount of a toxic agent required to eliminate 50% of the cell population. The LD50 was calculated in each experiment from the respective dose–response curve. All experiments were performed in triplicate wells.

Series [2] deals with AKH12 cells. The series can be described thus: Neutral red cell viability assay, AKH12. The settings on record: for reduction of cell viability, AKH12: 50 µM, 24 h, first screening; for IC50: Homo sapiens, 24 h treatment, neutral red, read-out: LD50 AKH12 (HCC). It counts as cell-based, human. How it is done:
as §1, §2, §3

The test system of series [3] is DAOY cells. The series can be described thus: Neutral red cell viability assay, DAOY. It counts as cell-based, human. The settings on record: for reduction of cell viability, DAOY: 50 µM, 24 h, first screening; for IC50: Homo sapiens, Daoy, 24 h treatment, neutral red, read-out: LD50 DAOY (MB). How it is done: as §1, §2, §3
The test system of series [4] is UW228-2 cells. The series can be described thus: Neutral red cell viability assay, UW228-2. It counts as cell-based, human. The settings on record: for reduction of cell viability, UW228-2: 50 µM, 24 h, first screening; for IC50: Homo sapiens, UW228-2, 24 h treatment, neutral red, read-out: LD50 UW228-2 (MB). How it is done:
as §1, §2, §3

The test system of series [5] is D283 cells. The series can be described thus: Neutral red cell viability assay, D283. In kind it is cell-based, human. The settings on record: for reduction of cell viability, D283: 50 µM, 24 h, first screening; for IC50: Homo sapiens, D283, 24 h treatment, read-out: LD50 D283 (MB). The method, then:
as §1, §2, §3

Series [6] concerns U251 cells. Kind of series: Neutral red cell viability assay, U251. In kind it is cell-based, human. The settings on record: for decrease of cell viability, U251: 50 µM, 24 h, first screening; for IC50: Homo sapiens, U-251, 24 h treatment, neutral red, read-out: LD50 U251 (GBM). The method, then: as §1, §2, §3
The test system of series [7] is HUVEC cells. The series can be described thus: Neutral red cell viability assay, HUVEC (Table 1). The settings on record: Table 1, nonmalignant primary cells, 24 h. It counts as cell-based. The method, then: as §1, §2, §3
For series [8], the system named is D425 cells. The series can be described thus: Cell viability assay (suspension cell line), MTT/CellTiter Blue, D425. In kind it is cell-based, human. The settings on record: for reduction of cell viability, D425: 50 µM, 24 h, first screening; for IC50: Homo sapiens, read-out: LD50 D425 (MB); for IC50 / LD50 D425 (MB): 24 h treatment, suspension cell assay; for HUVEC/D425 LD50 Fold Change: ratio of LD50 HUVEC to LD50 D425; for D425 cell viability as compared to HUVEC cells: dose-response 24 h, Student's t-test, p ≤0.05 / p ≤0.01. How it is done:
as §1, §3
(§4) One day before treatment, 2 × 10^4 of D425Med or HUVEC cells were seeded into 24-well plates and incubated at 37 °C in a humidified atmosphere containing 5% CO2.The cells were treated with different compounds for 24 h. A […] assay using the CellTiter Blue reagent (Promega, Fitchburg, Wisconsin, USA) was performed according to the manufacturer’s protocol. Experiments were performed in triplicate and repeated three times. The percentage of survival was calculated as the ratio using DMSO-treated (indicated as 0 µM concentration) cells as 100% control.
Background: The colour change of resazurin is a common sign of viable cells or microbes.

The subject of series [9] is HUVEC cells. The series can be described thus: Cell viability assay MTT/CellTiter Blue, HUVEC (Table 2). It counts as cell-based. The settings on record: Table 2, nonmalignant primary cells, 24 h, assay as for D425. How it is done:
as §1, §3, §4

For `CC(c1ccccc1)N1CC(NS(=O)(=O)c2ccc(-c3ccccc3)cc2)C2CCC1C2` [Compound 11a, 4-Phenyl-N-((2-((S)-1-phenylethyl)-(1S,4S,5R)-2-azabicyclo[3.2.1]octan-4-yl)benzenesulfonamide], the IC50 in [1] was 22.5 ± 1.21 µM; in series [2], 28.8 ± 1.53 µM; in series [3] it was 18.7 ± 1.88 µM; in [4], 16 ± 1.03 µM; in series [5], 20 ± 2.02 µM; in [6], 18.8 ± 2.11 µM. In addition, the IC50 in series [8] turned out to be 21.4 ± 0.89 µM. Further, the “reduction of cell viability, AKH12” value in [2] is on record as “reduced cell viability below LD50”. For the same compound, in [3], the “reduction of cell viability, DAOY” value is on record as “reduced cell viability”. Further, the “reduction of cell viability, UW228-2” value in series [4] is recorded as “reduced cell viability”. Besides, in [5], the “reduction of cell viability, D283” value is on record as “reduced cell viability”. The “decrease of cell viability, U251” value in series [6] is “more than 50%”. Besides, the “LD50 HUVEC” value in series [7] is on record as 13.35 ± 0.25 µM; in series [9] it was 21.71 ± 1.99 µM. In addition, the “reduction of cell viability, D425” value in series [8] is “reduced cell viability”. The “HUVEC/D425 LD50 Fold Change” value in [8] worked out at 1.01.

For the compound `CC(c1ccccc1)N1C2CCC(C2)C1CNS(=O)(=O)c1ccc(-c2ccccc2)cc1` (stereo not drawn) [Compound 10a], in series [1], the IC50 came to 13.9 ± 1.02 µM. In [2], the “reduction of cell viability, AKH12” value is “reduced cell viability below LD50” and the IC50 was determined as 15.5 ± 1.3 µM. Besides, in series [3], the “reduction of cell viability, DAOY” value is “reduced cell viability” and the IC50 was 16 ± 1.12 µM. In series [4], the “reduction of cell viability, UW228-2” value is “reduced cell viability” and the IC50 stood at 28.8 ± 2.1 µM. Moreover, in [5], the “reduction of cell viability, D283” value is recorded as “reduced cell viability” and the IC50 was determined as 17.7 ± 1.09 µM. In series [6], the “decrease of cell viability, U251” value is on record as “more than 50%” and the IC50 was determined as 13.5 ± 0.9 µM. The “LD50 HUVEC” value in series [7] is given as 11.58 ± 1.11 µM. In series [8], the “reduction of cell viability, D425” value is given as “reduced cell viability”; the IC50 came out at 16.7 ± 2.11 µM; the “HUVEC/D425 LD50 Fold Change” value came out at 1.67. Besides, in series [9], the “LD50 HUVEC” value stood at 28 ± 1.86 µM.

Regarding `CC(c1ccccc1)N1C2CCC(C2)C1CNS(=O)(=O)c1cc(C(F)(F)F)cc(C(F)(F)F)c1` [Compound 10g, 3,5-Bis(trifluoromethyl)-N-((2-((S)-1-phenylethyl)-(1S,3R,4R)-2-azabicyclo[2.2.1]heptane-3-yl)benzenesulfonamide], in [1], the IC50 worked out at 11.7 ± 1.53 µM. Moreover, in series [2], the “reduction of cell viability, AKH12” value is on record as “reduced cell viability below LD50” and the IC50 is 10.2 ± 1.09 µM. For the same compound, in [3], the “reduction of cell viability, DAOY” value is listed as “reduced cell viability” and the IC50 was determined as 19.2 ± 1.42 µM. Also, in [4], the “reduction of cell viability, UW228-2” value is “reduced cell viability” and the IC50 worked out at 12 ± 0.99 µM. For the same compound, in series [5], the “reduction of cell viability, D283” value was “reduced cell viability” and the IC50 was 16 ± 1 µM. Moreover, in series [6], the “decrease of cell viability, U251” value is given as “more than 50%” and the IC50 stood at 11.8 ± 1.58 µM. In addition, the “LD50 HUVEC” value in [7] came to 10.77 ± 0.93 µM. Moreover, in [8], the “reduction of cell viability, D425” value is listed as “reduced cell viability”; the “LD50 D425 (MB)” value is reported as 6.61 ± 1.52 µM; the IC50 stood at 6.61 µM; the “D425 cell viability as compared to HUVEC cells” value is given as “significantly reduced D425 cell viability as compared to HUVEC cells”. In addition, in [8], the “HUVEC/D425 LD50 Fold Change” value stood at 2.66. The “LD50 HUVEC” value in [9] is 17.62 ± 2.98 µM.

As to `CC(c1ccccc1)N1C2CCC(C2)C1CNS(=O)(=O)c1ccc(-c2ccc(F)cc2)cc1` [Compound 10c, 4-(4-Fluorophenyl)-N-((2-((S)-1-phenylethyl)-(1S,3R,4R)-2-azabicyclo[2.2.1]heptane-3-yl)benzenesulfonamide], the IC50 in [1] amounted to 17.3 ± 0.98 µM. Further, in series [2], the “reduction of cell viability, AKH12” value was “reduced cell viability below LD50” and the IC50 came out at 23.3 ± 2.1 µM. Also, in [3], the “reduction of cell viability, DAOY” value was “reduced cell viability” and the IC50 is 16 ± 2.1 µM. In series [4], the “reduction of cell viability, UW228-2” value is “reduced cell viability” and the IC50 was 15.7 ± 1.32 µM. Further, in series [5], the “reduction of cell viability, D283” value is recorded as “reduced cell viability” and the IC50 stood at 27.2 ± 2.35 µM. For the same compound, in series [6], the “decrease of cell viability, U251” value was “more than 50%” and the IC50 was determined as 21.3 ± 1.01 µM. In addition, the “LD50 HUVEC” value in series [7] is listed as 13.8 ± 1.14 µM. Further, in [8], the “reduction of cell viability, D425” value was “reduced cell viability”; the “LD50 D425 (MB)” value stood at 5.38 ± 0.77 µM; the IC50 was determined as 5.38 µM; the “D425 cell viability as compared to HUVEC cells” value is given as “significantly reduced D425 cell viability as compared to HUVEC cells”. The “HUVEC/D425 LD50 Fold Change” value in series [8] was found to be 3.11. The “LD50 HUVEC” value in series [9] is 16.77 ± 0.71 µM.

As for `CC(c1ccccc1)N1CC(NS(=O)(=O)c2cc(C(F)(F)F)cc(C(F)(F)F)c2)C2CCC1C2` [Compound 11g, 3,5-Bis(trifluoromethyl)-N-((2-((S)-1-phenylethyl)-(1S,4S,5R)-2-azabicyclo[3.2.1]octan-4-yl)benzenesulfonamide], the IC50 in [1] came out at 20 ± 1.1 µM; in series [2], 28 ± 1.72 µM; in [3], 20.4 ± 1.33 µM; in series [4], 20.1 ± 1.34 µM; in series [5] it was 17.2 ± 0.89 µM; in series [6] it was 24.8 ± 0.92 µM. Further, the IC50 in series [8] was found to be 11.2 ± 1.73 µM. Also, the “reduction of cell viability, AKH12” value in series [2] was “reduced cell viability below LD50”. In addition, the “reduction of cell viability, DAOY” value in series [3] is recorded as “reduced cell viability”. The “reduction of cell viability, UW228-2” value in series [4] is recorded as “reduced cell viability”. Also, the “reduction of cell viability, D283” value in [5] was “reduced cell viability”. For the same compound, the “decrease of cell viability, U251” value in series [6] is “more than 50%”. The “LD50 HUVEC” value was 18.68 ± 1.97 µM in [7] and 16 ± 2.29 µM in [9]. Further, in [8], the “reduction of cell viability, D425” value is “reduced cell viability”. The “HUVEC/D425 LD50 Fold Change” value in series [8] is 1.42.

Values taken from paper PMC7288168, “Synthesis and Cytotoxic Activity of Chiral Sulfonamides Based on the 2-Azabicycloalkane Skeleton” (Molecules, 2020).
